Experimental data as given in patent US20250230193A1, “CYCLIC COMPOUND HAVING SELECTIVE KRAS INHIBITORY EFFECT ON HRAS AND NRAS” (CHUGAI SEIYAKU KABUSHIKI KAISHA, priority 2022, published 2025).
Where a SMILES comes first, the peptide text is derived from it. Bridges are numbered along the chain shown (N, C = ends). [ ]: non-standard residue; d: D form. hPhe(3-Cl-4-CF3) = N[C@@H](CCc1ccc(C(F)(F)F)c(Cl)c1)C(=O)O; NPrPhe(4-CF3) = CCCN[C@@H](Cc1ccc(C(F)(F)F)cc1)C(=O)O; NMeGly(cPent) = CN[C@H](C(=O)O)C1CCCC1; Pro(4,4-F2) = O=C(O)[C@@H]1CC(F)(F)CN1; NMeL = CN[C@@H](CC(C)C)C(=O)O; Ac5c = NC1(C(=O)O)CCCC1; Sar = CNCC(=O)O

Assays:
[1] = biological target: GDP-bound NRAS wild-type protein (Homo sapiens, UniProt P01111); assay: Binding to NRAS by surface plasmon resonance (SPR), Single Cycle Kinetics; settings: SPR; for NRAS/KRAS (ratio of KD value with respect to NRAS to KD value with respect to KRAS): GDP-bound NRAS wild-type vs GDP-bound KRAS wild-type
Chain of GDP-bound NRAS wild-type protein (P01111 whole entry): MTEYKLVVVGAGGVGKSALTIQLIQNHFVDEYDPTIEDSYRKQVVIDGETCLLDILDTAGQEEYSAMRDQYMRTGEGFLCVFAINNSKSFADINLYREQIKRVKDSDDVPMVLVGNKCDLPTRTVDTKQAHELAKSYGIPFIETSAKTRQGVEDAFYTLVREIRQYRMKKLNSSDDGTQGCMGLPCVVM

[2] = biological target: GDP-bound HRAS wild-type protein (Homo sapiens, UniProt P01112); assay: Binding to HRAS by surface plasmon resonance (SPR), Single Cycle Kinetics; settings: SPR; for HRAS/KRAS (ratio of KD value with respect to HRAS to KD value with respect to KRAS): GDP-bound HRAS wild-type vs GDP-bound KRAS wild-type
Chain of GDP-bound HRAS wild-type protein (P01112 whole entry): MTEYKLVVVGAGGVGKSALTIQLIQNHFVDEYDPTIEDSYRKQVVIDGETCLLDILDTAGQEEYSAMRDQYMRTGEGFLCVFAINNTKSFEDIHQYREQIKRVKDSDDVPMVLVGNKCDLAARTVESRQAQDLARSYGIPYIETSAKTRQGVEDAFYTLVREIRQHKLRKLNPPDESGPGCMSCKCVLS

Structure (SMILES)	NRAS/KRAS (ratio of KD value with respect to NRAS to KD value with respect to KRAS) [1]	HRAS/KRAS (ratio of KD value with respect to HRAS to KD value with respect to KRAS) [2]	NRAS/KRAS (ratio of KD value with respect to GDP-bound NRAS wild-type protein to KD value with respect to KRAS) ([1]; KD ratio NRAS/KRAS)	HRAS/KRAS (ratio of KD value with respect to GDP-bound HRAS wild-type protein to KD value with respect to KRAS) ([2]; KD ratio HRAS/KRAS)	also measured
CCC[C@H]1C(=O)N[C@@H](CC(C)C)C(=O)N(CC)CC(=O)N(C)[C@H]2C/C=C\CCN(C2=O)[C@@H](Cc2ccc(C)cc2)C(=O)N(C)CC(=O)N[C@@H](CCc2cc(F)c(C(F)(F)F)c(F)c2)C(=O)N2C[C@H](OCC)C[C@H]2C(=O)NC2(CC(C)(C)C2)C(=O)N(C)[C@@H](C2CCCC2)C(=O)N(C)[C@H](C(=O)N(C)C)CC(=O)N1C [PP2516]	A (a compound having 10 or more and less than 20 is denoted as A)	B (a compound having 3 or more and less than 10 is denoted as B)	–	–	–
CCC[C@H]1C(=O)N[C@@H]([C@@H](C)CC)C(=O)N(C)CC(=O)N(C)[C@H]2C/C=C\CCN(C2=O)[C@@H](CC2CCC(F)(F)CC2)C(=O)N(C)CC(=O)N[C@@H](CCc2cc(F)c(C(F)(F)F)c(F)c2)C(=O)N2C[C@H](OCC)C[C@H]2C(=O)NC2(CC(C)(C)C2)C(=O)N(C)[C@@H](C(CC)CC)C(=O)N(C)[C@H](C(=O)N(C)C)CC(=O)N1C [PP2489]	A (a compound having 10 or more and less than 20 is denoted as A)	A (a compound having 10 or more and less than 20 is denoted as A)	–	–	–
CC[C@H](C)[C@@H]1NC(=O)[C@H](CC(C)C)N(C)C(=O)C[C@@H](C(=O)N2CCOCC2)N(C)C(=O)[C@H](C2CCCC2)N(C)C(=O)C2(CCCC2)NC(=O)[C@@H]2CCCN2C(=O)[C@H](CCc2ccc(C(F)(F)F)c(Cl)c2)NC(=O)CN(C)C(=O)[C@H](Cc2ccc(OC)cc2)N2CCCC[C@@H](C2=O)N(C)C(=O)CN(C)C1=O [PP0534]	–	–	B (a compound having 3 or more and less than 10 is denoted as B)	B (a compound having 3 or more and less than 10 is denoted as B)	–
CC(C)C[C@H]1C(=O)N[C@@H](C2CCC2)C(=O)N(C)CC(=O)N(C)[C@H]2CCCCN(C2=O)[C@@H](Cc2ccc(C(F)(F)F)cc2)C(=O)N(C)CC(=O)N[C@@H](CCc2cc(F)c(C(F)(F)F)c(F)c2)C(=O)N2CCC[C@H]2C(=O)NC2(CCCC2)C(=O)N(C)[C@@H](C2CCCC2)C(=O)N(C)[C@H](C(=O)N2CCOCC2)CC(=O)N1C [PP0596]	–	–	B (a compound having 3 or more and less than 10 is denoted as B)	B (a compound having 3 or more and less than 10 is denoted as B)	–
CCCN1C(=O)CN(C)C(=O)CN(C)C(=O)[C@H]([C@@H](C)CC)NC(=O)[C@H](CC(C)C)N(C)C(=O)C[C@@H](C(=O)N(C)C)NC(=O)[C@H](C2CCCC2)N(C)C(=O)C2(CCCC2)NC(=O)[C@@H]2CC(F)(F)CN2C(=O)[C@H](CCc2ccc(C(F)(F)F)c(Cl)c2)NC(=O)CN(C)C(=O)[C@@H]1Cc1ccc(C(F)(F)F)cc1 [PP0357] ([NMeL]I[Sar][Sar][NPrPhe(4-CF3)][Sar][hPhe(3-Cl-4-CF3)][Pro(4,4-F2)][Ac5c][NMeGly(cPent)]D-NMe2; lactam N-11)	–	–	–	–	NRAS/KRAS (ratio of KD for GDP-bound NRAS wild-type to KD for KRAS) ([1]; KD ratio NRAS/KRAS): B (a compound having 3 or more and less than 10 is denoted as B); HRAS/KRAS (ratio of KD for GDP-bound HRAS wild-type to KD for KRAS) ([2]; KD ratio HRAS/KRAS): B (a compound having 3 or more and less than 10 is denoted as B)
CC[C@H](C)[C@@H]1NC(=O)[C@H](CC(C)C)NC(=O)C[C@@H](C(=O)N2CCOCC2)N(C)C(=O)[C@H](C2CCCC2)N(C)C(=O)C2(CCCC2)NC(=O)[C@@H]2CCCN2C(=O)[C@H](CCc2cc(F)c(C(F)(F)F)c(F)c2)NC(=O)CN(C)C(=O)[C@H](Cc2ccc(C(F)(F)F)cc2)N2CCCC[C@@H](C2=O)N(C)C(=O)CN(C)C1=O [PP0590]	–	–	C (A compound having a KD ratio of 0.1 or more and less than 3 is denoted as C)	B (a compound having 3 or more and less than 10 is denoted as B)	–
CCCOC[C@H]1C(=O)N[C@@H]([C@@H](C)CC)C(=O)N(C)CC(=O)N(C)[C@H]2C/C=C\CCN(C2=O)[C@@H](CC2CCC(F)(F)CC2)C(=O)N(C)CC(=O)N[C@@H](CCc2ccc(C(F)(F)F)c(OC)c2)C(=O)N2C[C@H](OCC)C[C@H]2C(=O)N(C)C2(CCC2)C(=O)N(C)[C@@H](C2CCCC2)C(=O)N(C)[C@H](C(=O)N(C)C)CC(=O)N1C [PP2350]	A (a compound having 10 or more and less than 20 is denoted as A)	A (a compound having 10 or more and less than 20 is denoted as A)	–	–	–
